Measured values as given in patent US8999970B2, “Administration of an anti-obesity compound to individuals with renal impairment” (Arena Pharmaceuticals, Inc., priority 2010, dated 2015).

Tests used:
[1] = Preclinical toxicology: lorcaserin, M1 and M5 pharmacokinetics after oral administration of lorcaserin, 52 wk, monkeys; conditions: for AUC0-inf / AUClast / Cmax / tmax: Monkeys, 52 wk
Experimental: Lorcaserin doses of 0, 2, 10, 50, and 125 mg/kg in a 5 mL/kg dose volume were administered by nasogastric intubation once daily for 12 months to cynomolgus monkeys (4 to 6/sex/group). Two animals/sex from the control, 50 and 125 mg/kg groups were continued on study without further dosing for an additional 4 weeks prior to termination. For the first 91 days of the study, dose solutions were prepared using anhydrous lorcaserin. Starting on Day 92 and continuing for the remainder of the study, dose solutions were prepared using lorcaserin hemihydrate to match the intended commercial form. […] Evaluations included clinical signs, food consumption, BW, electrocardiograms, ophthalmic exams, and clinical pathology indices. Blood samples were collected for TK analysis on Day 1, Week 4, Day 91, Day 92, and Week 52. A full necropsy was conducted on all animals, and tissues were collected, preserved, processed, and examined microscopically. Additional sections of heart were collected to allow comprehensive evaluation of all heart valves. Heart histopathologic evaluation included atria, ventricles, interventricular septum, both AV valves (mitral and tricuspid), and the aortic and pulmonic valves.

[2] = Modeled steady state exposures following lorcaserin 10 mg BID (simulations and noncompartmental analysis from QD data); conditions: 10 mg BID Simulation, Steady State
Experimental: To better assess the potential implications of M1 and M5 levels in patients, steady state exposures (i.e. the state of equilibrium obtained at the end of a certain number of dosings) following lorcaserin 10 mg twice daily (BID) dosing were modeled using simulations and noncompartmental analysis based on data from pharmacokinetic studies with once daily (QD) dosing.
To better assess the potential implications of M1 levels in subjects with renal impairment, steady state M1 exposure following lorcaserin 10 mg BID administration was modeled using simulations and noncompartmental analysis based upon data from pharmacokinetic studies with once daily (QD) dosing. This modeling is discussed below in Example 5.
To better assess the potential implications of M1 and M5 levels, steady state exposures following lorcaserin 10 mg BID dosing were modeled using simulations and noncompartmental analysis based upon data from pharmacokinetic studies with once daily (QD) dosing.

[3] = lorcaserin 10 mg/kg/day oral, F
[4] = lorcaserin 10 mg/kg/day oral, M
[5] = lorcaserin 50 mg/kg/day oral, F
[6] = lorcaserin 50 mg/kg/day oral, M
[7] = lorcaserin 125 mg/kg/day oral, F
[8] = lorcaserin 125 mg/kg/day oral, M

C[C@H]1CN(C(=O)O[C@@H]2O[C@H](C(=O)O)[C@@H](O)[C@H](O)[C@H]2O)CCc2ccc(Cl)cc21 [Compound M5, N-carbamoyl glucuronide of lorcaserin]
AUC0-inf ([1]; lorcaserin 2 mg/kg/day oral, F): 2130 ± 820 ng·h/mL | AUClast ([1]; lorcaserin 2 mg/kg/day oral, F): 1760 ± 830 ng·h/mL | Cmax ([1]; lorcaserin 2 mg/kg/day oral, F): 771 ± 104 ng/mL | tmax ([1]; lorcaserin 2 mg/kg/day oral, F): 0.5 ± 0.0 h | AUC0-inf ([1]; lorcaserin 2 mg/kg/day oral, M): 2380 ± 290 ng·h/mL | AUClast ([1]; lorcaserin 2 mg/kg/day oral, M): 1820 ± 570 ng·h/mL | Cmax ([1]; lorcaserin 2 mg/kg/day oral, M): 635 ± 310 ng/mL | tmax ([1]; lorcaserin 2 mg/kg/day oral, M): 0.8 ± 0.3 h | AUC0-inf [1, 3]: 6520 ± 1520 ng·h/mL | AUClast [1, 3]: 6140 ± 1710 ng·h/mL | tmax [1, 3]: 1.0 ± 0.7 h | AUC0-inf [1, 4]: 13600 ± 5000 ng·h/mL | AUClast [1, 4]: 12500 ± 6100 ng·h/mL | Cmax [1, 4]: 2480 ± 1140 ng/mL | tmax [1, 4]: 1.8 ± 0.5 h | AUC0-inf [1, 5]: 40400 ± 13400 ng·h/mL | AUClast [1, 5]: 38700 ± 12700 ng·h/mL | Cmax [1, 5]: 3600 ± 620 ng/mL | tmax [1, 5]: 3.2 ± 1.8 h | AUC0-inf [1, 6]: 71400 ± 26600 ng·h/mL | AUClast [1, 6]: 69000 ± 25800 ng·h/mL | Cmax [1, 6]: 7040 ± 2050 ng/mL | tmax [1, 6]: 2.3 ± 1.9 h | AUC0-inf [1, 7]: 140000 ± 78000 ng·h/mL | AUClast [1, 7]: 134000 ± 78000 ng·h/mL | Cmax [1, 7]: 19700 ± 13500 ng/mL | tmax [1, 7]: 2.7 ± 2.0 h | AUC0-inf [1, 8]: 182000 ± 77000 ng·h/mL | AUClast [1, 8]: 170000 ± 64000 ng·h/mL | Cmax [1, 8]: 15800 ± 3700 ng/mL | tmax [1, 8]: 2.2 ± 1.9 h | AUC0-inf in monkeys relative to predicted daily exposure in moderate renal impairment ([1]; monkeys 2 mg/kg/day): approximately equal | AUC0-inf in monkeys relative to predicted daily exposure in severe renal impairment ([1]; monkeys 2 mg/kg/day (NOAEL), human 10 mg BID): approximately half | Cmax in monkeys relative to predicted Cmax in severe renal impairment ([1]; monkeys 2 mg/kg/day (NOAEL), human 10 mg BID steady state): 2.8-3.5 times | Exposure in monkeys relative to predicted daily exposure in moderate renal impairment ([1]; monkeys 10 mg/kg/day): 3.0-6.3 times | AUC0-inf exposure margin, monkeys vs predicted daily exposure in severe renal impairment ([1]; monkeys 10 mg/kg/day, human 10 mg BID): 1.5-3.2 fold | Dose proportionality of plasma exposure ([1]; monkeys, Day 1, 2 to 125 mg/kg, both sexes): more than dose proportional | Exposure relative to the concomitant lorcaserin exposure, higher ([1]; monkeys, single or multiple doses of lorcaserin): up to 3 fold | AUC24 hr ([2]; ESRD): 20100 ng·h/mL | Cmax ([2]; ESRD): 936 ng/mL | t1/2 ([2]; ESRD): 22.9 h | AUC24 hr ([2]; Mild): 1090 ng·h/mL | Cmax ([2]; Mild): 78.1 ng/mL | t1/2 ([2]; Mild): 5.41 h | AUC24 hr ([2]; Moderate): 2150 ng·h/mL | Cmax ([2]; Moderate): 141 ng/mL | t1/2 ([2]; Moderate): 9.83 h | AUC24 hr ([2]; Normal): 765 ng·h/mL | Cmax ([2]; Normal): 77.3 ng/mL | t1/2 ([2]; Normal): 6.11 h | AUC24 hr ([2]; Severe): 4260 ng·h/mL | Cmax ([2]; Severe): 223 ng/mL | t1/2 ([2]; Severe): 11.0 h
